According to US9115092B2, “Substituted quinazoline and pyrido-pyrimidine derivatives” (Asana Biosciences, LLC, priority 2010, dated 2015):

Legend:
[1] = target: T1, PI3Kα (wild-type), P110/P85α (Homo sapiens, UniProt P42336); experiment: PI3 Kinase TR-FRET assay, PI3Kα (wild-type); assay type: biochemical
T1 construct: made in house; host or cells: SF9 insect cells
Procedure, shortened: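 Sf9-expressed His-purified P110/P85α (5 ng) preincubated 60 min RT with compound and PIP2 in buffer with 40 mM MgCl2, 5 mM DTT; reaction started with ATP (PIP2 and ATP both 10 μM), 30 min RT. PIP3 detected by TR-FRET displacement, 665/615 nm ratio; IC50 from dose-response curves.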

mTOR kinase = target: T2, mTOR kinase (Homo sapiens, UniProt P42345); experiment: mTOR kinase TR-FRET assay; assay type: biochemical; details: read-out: mTO R
T2 construct: purchased Millipore, USA
Procedure, shortened: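 Compounds preincubated 60 min with mTOR (5 ng) in HEPES pH 7.5, EGTA, MnCl2; ULight-p70 S6K Thr389 peptide (50 nM) and ATP (20 μM) then added, 60 min at room temperature. EDTA-stopped, Eu-anti-phospho antibody detection by TR-FRET (665/615 nm); IC50 from variable-slope sigmoidal fit.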

[2] = system: pS6RP(S235/236), PC3 cells; experiment: In-cell Western assay, pS6RP(S235/236) in PC3 cells; assay type: cell-based, human; details: Homo sapiens, PC-3, In-cell Western
Description: Cells from human prostate cancer cell line PC3 (American Type Culture Collection (ATCC), Manassas, Va. 20108 USA) were seeded at an optimal density of 22,000 cell/well in 96-well plates containing Ham's F12K medium (90 μL) and incubated overnight. The compound dilutions were carried out in 100% DMSO followed by a dilution in the medium. Test compounds were added in serial dilutions to the wells and incubated for 2 h. The cells were washed and fixed with 4% paraformaldehyde. After incubation at room temperature for 1 h in the dark, blocking was done for 2 h at room temperature. Primary antibodies for phosphorylated (p) AKT(5473) (phosphorylated at serine 473), pAKT(T308) (phosphorylated at threonine 308) and for pS6RP(S235/236) (phosphorylated at serine 235/236) (commercially available from Cell Signaling Technology®, whose protocol was followed for the in-cell western assay, were diluted to the required concentration and added to the corresponding wells followed by overnight incubation at 4° C. Eu-labeled rabbit (PE) (Perkin-Elmer USA catalog #AD0106) secondary antibody was added and incubated for 2 h at room temperature. Delfia® enhancement solution (cat #1244-105, Perkin Elmer USA) was subsequently added to the plate before taking the reading at 615 nm with excitation wavelength of 340 nm, after which 0.5 μg/mL of Hoechst® 33258 dye (Catalog #86140-5, Sigma) was added to the plate and fluorescence emission was read at 460 nm with 355 nm excitation, to evaluate the correction factor. IC50 values were calculated using a sigmoidal dose-response curve fit in GraphPad Prism® v5 software.

PC3 cells = experiment: XTT assay for cell viability, PC3 cells; assay type: cell-based, human; details: Homo sapiens, PC-3, cell viability
Procedure, shortened: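 PC3 cells seeded at 1000 cells/well, grown 24 h, then exposed to serial dilutions of compound for 96 h. Viability read by XTT dye at 37° C, absorbance 465 nm. EC50 from sigmoidal dose-response fit.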

T1 sequence (P42336 whole entry): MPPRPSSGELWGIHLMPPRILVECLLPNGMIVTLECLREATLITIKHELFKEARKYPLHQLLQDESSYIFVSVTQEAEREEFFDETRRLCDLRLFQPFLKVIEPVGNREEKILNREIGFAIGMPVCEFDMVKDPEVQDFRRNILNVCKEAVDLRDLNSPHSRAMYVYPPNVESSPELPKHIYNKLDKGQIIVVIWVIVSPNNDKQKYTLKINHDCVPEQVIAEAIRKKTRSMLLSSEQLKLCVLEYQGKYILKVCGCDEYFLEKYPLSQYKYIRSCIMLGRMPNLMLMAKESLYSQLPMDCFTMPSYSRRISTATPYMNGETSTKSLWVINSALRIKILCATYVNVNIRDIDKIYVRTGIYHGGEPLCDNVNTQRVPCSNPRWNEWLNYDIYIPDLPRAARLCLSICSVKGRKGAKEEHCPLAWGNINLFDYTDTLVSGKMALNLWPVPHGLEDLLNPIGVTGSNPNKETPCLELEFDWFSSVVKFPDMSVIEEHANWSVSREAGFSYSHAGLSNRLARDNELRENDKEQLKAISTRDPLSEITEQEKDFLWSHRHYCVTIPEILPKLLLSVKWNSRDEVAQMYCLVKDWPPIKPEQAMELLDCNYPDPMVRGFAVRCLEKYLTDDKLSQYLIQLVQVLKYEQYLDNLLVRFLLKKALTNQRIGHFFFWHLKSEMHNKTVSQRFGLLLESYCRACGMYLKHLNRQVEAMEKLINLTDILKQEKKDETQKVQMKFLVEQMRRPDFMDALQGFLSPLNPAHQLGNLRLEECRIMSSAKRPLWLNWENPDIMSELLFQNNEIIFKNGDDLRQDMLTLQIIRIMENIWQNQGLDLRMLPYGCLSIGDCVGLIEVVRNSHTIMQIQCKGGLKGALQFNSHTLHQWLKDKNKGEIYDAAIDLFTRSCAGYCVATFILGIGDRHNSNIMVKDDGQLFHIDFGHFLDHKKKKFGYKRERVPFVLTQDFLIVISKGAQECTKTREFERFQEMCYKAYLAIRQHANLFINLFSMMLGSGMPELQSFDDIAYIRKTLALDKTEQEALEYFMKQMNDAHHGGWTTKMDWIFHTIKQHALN
T1 sequence (P27986 whole entry partner): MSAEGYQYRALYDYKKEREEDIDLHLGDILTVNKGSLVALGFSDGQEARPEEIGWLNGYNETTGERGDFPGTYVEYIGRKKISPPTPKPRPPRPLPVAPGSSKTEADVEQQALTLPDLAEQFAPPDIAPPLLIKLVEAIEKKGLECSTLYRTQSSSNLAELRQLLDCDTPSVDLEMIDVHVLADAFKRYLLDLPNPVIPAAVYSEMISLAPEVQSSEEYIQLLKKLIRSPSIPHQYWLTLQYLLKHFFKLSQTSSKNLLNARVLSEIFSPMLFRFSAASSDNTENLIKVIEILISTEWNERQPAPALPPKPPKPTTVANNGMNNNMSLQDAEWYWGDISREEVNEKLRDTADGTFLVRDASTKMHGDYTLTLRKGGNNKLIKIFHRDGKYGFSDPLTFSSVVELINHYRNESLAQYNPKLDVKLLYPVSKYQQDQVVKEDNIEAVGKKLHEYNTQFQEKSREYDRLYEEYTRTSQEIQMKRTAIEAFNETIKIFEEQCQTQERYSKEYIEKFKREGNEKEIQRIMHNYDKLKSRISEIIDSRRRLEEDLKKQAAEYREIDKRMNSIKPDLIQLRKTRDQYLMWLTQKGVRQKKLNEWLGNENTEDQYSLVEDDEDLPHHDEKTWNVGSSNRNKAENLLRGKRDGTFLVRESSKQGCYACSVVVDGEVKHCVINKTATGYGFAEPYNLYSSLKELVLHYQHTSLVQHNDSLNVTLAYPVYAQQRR

Row | SMILES | IC50 [1] | IC50 (mTOR kinase) | IC50 [2] | IC50 (PC3 cells)
1 | CN(C)C(=O)c1ccc(NC(=O)Nc2ccc(-c3nc(N4CCOCC4)c4ccc(-c5ccnnc5)cc4n3)cc2)cc1 [Example 86, N,N-dimethyl-4-(3-(4-(4-morpholino-7-(pyridazin-4-yl)quinazolin-2-yl)phenyl)ureido)-benzamide] | 50 to 200 nM | < 50 nM | 201 to 10000 nM | 201 to 10000 nM
2 | Cc1ccc(-c2cc3nc(-c4ccc(NC(=O)Nc5ccc(C(=O)N(C)C)cc5)cc4)nc(N4CCOCC4)c3cc2F)o1 [Example 87, 4-(3-(4-(6-fluoro-7-(5-methylfuran-2-yl)-4-morpholino-quinazolin-2-yl)phenyl)ureido)-N,N-dimethyl-benzamide] | 50 to 200 nM | < 50 nM | < 100 nM | < 100 nM
3 | CNC(=O)c1ccc(NC(=O)Nc2ccc(-c3nc(N4CCOCC4)c4ccc(-c5cncnc5)cc4n3)cc2)cc1 [Example 88, N-methyl-4-(3-(4-(4-morpholino-7-(pyrimidin-5-yl)quinazolin-2-yl)phenyl)ureido)-benzamide] | 50 to 200 nM | < 50 nM | < 100 nM | 201 to 10000 nM
4 | CNC(=O)c1ccc(NC(=O)Nc2ccc(-c3nc(N4CCOCC4)c4ncc(-c5cnn(C)c5)cc4n3)cc2)cc1 [Example 89, N-methyl-4-(3-(4-(7-(1-methyl-1H-pyrazol-4-yl)-4-morpholino-pyrido[3,2-d]pyrimidin-2-yl)phenyl)ureido)-benzamide] | < 50 nM | < 50 nM | 201 to 10000 nM | 201 to 10000 nM
5 | CN(C)C(=O)c1ccc(NC(=O)Nc2ccc(-c3nc(N4CCOCC4)c4ccc(-c5cccnc5F)cc4n3)cc2F)cc1 [Example 91, 4-(3-(2-fluoro-4-(7-(2-fluoropyridin-3-yl)-4-morpholino-quinazolin-2-yl)phenyl)ureido)-N,N-dimethyl-benzamide] | < 50 nM | < 50 nM | 201 to 10000 nM | 201 to 10000 nM
6 | CN(C)C(=O)c1ccc(NC(=O)Nc2ccc(-c3nc(N4CCOCC4)c4ncc(-c5cnc(N)nc5)cc4n3)cc2)cc1 [Example 92, 4-(3-(4-(7-(2-aminopyrimidin-5-yl)-4-morpholino-pyrido[3,2-d]pyrimidin-2-yl)phenyl)ureido)-N,N-dimethyl-benzamide] | < 50 nM | < 50 nM | 201 to 10000 nM | 201 to 10000 nM
7 | Cc1ccncc1-c1cnc2c(N3CCOCC3)nc(-c3ccc(NC(=O)Nc4ccc(C(=O)N(C)C)cc4)cc3)nc2c1 [Example 93, N,N-dimethyl-4-(3-(4-(7-(4-methylpyridin-3-yl)-4-morpholino-pyrido[3,2-d]pyrimidin-2-yl)phenyl)ureido)-benzamide] | < 50 nM | < 50 nM | 201 to 10000 nM | 201 to 10000 nM
8 | COc1ncc(-c2cnc3c(N4CCOCC4)nc(-c4ccc(NC(=O)Nc5ccc(C(=O)N(C)C)cc5)cc4)nc3c2)cn1 [Example 94, 4-(3-(4-(7-(2-methoxypyrimidin-5-yl)-4-morpholino-pyrido[3,2-d]pyrimidin-2-yl)phenyl)ureido)-N,N-dimethyl-benzamide] | < 50 nM | < 50 nM | 201 to 10000 nM | 201 to 10000 nM
9 | COc1cccc(-c2ccc3c(N4CCOCC4)nc(-c4ccc(NC(=O)Nc5ccc(C(=O)N(C)C)cc5)cc4)nc3c2)n1 [Example 95, 4-(3-(4-(7-(6-methoxypyridin-2-yl)-4-morpholino-quinazolin-2-yl)phenyl)ureido)-N,N-dimethyl-benzamide] | 50 to 200 nM | 50 to 200 nM | 501 to 5000 nM | < 100 nM
10 | CN(C)C(=O)c1ccc(NC(=O)Nc2ccc(-c3nc(N4CCOCC4)c4ncc(-c5ccnnc5)cc4n3)cc2)cc1 [Example 96, N,N-dimethyl-4-(3-(4-(4-morpholino-7-(pyridazin-4-yl)pyrido[3,2-d]pyrimidin-2-yl)phenyl)ureido)-benzamide] | < 50 nM | < 50 nM | 201 to 10000 nM | 201 to 10000 nM
11 | CN(C)C(=O)c1ccc(NC(=O)Nc2ccc(-c3nc(N4CCOCC4)c4ccc(-c5cnn(C)c5)cc4n3)cc2F)cc1 [Example 97, 4-(3-(2-fluoro-4-(7-(1-methyl-1H-pyrazol-4-yl)-4-morpholino-quinazolin-2-yl)phenyl)ureido)-N,N-dimethyl-benzamide] | < 50 nM | < 50 nM | 201 to 10000 nM | 201 to 10000 nM
12 | CN(C)C(=O)c1ccc(NC(=O)Nc2ccc(-c3nc(N4CCOCC4)c4ccc(-c5ccnnc5)cc4n3)cc2F)cc1 [Example 98, 4-(3-(2-fluoro-4-(4-morpholino-7-(pyridazin-4-yl)quinazolin-2-yl)phenyl)ureido)-N,N-dimethyl-benzamide] | 50 to 200 nM | < 50 nM | 201 to 10000 nM | 201 to 10000 nM
13 | CN(C)C(=O)c1ccc(NC(=O)Nc2ccc(-c3nc(N4CCOCC4)c4cc(F)c(-c5cncnc5)cc4n3)cc2F)cc1 [Example 99, 4-(3-(2-fluoro-4-(6-fluoro-4-morpholino-7-(pyrimidin-5-yl)quinazolin-2-yl)phenyl)ureido)-N,N-dimethyl-benzamide] | < 50 nM | < 50 nM | 201 to 10000 nM | 201 to 10000 nM
14 | Cc1ccncc1-c1ccc2c(N3CCOCC3)nc(-c3ccc(NC(=O)Nc4ccc(C(=O)N(C)C)cc4)c(F)c3)nc2c1 [Example 100, 4-(3-(2-fluoro-4-(7-(4-methylpyridin-3-yl)-4-morpholino-quinazolin-2-yl)phenyl)ureido)-N,N-dimethyl-benzamide] | < 50 nM | < 50 nM | 201 to 10000 nM | 201 to 10000 nM
15 | CN(C)C(=O)c1ccc(NC(=O)Nc2ccc(-c3nc(N4CCOCC4)c4ncc(-c5cncnc5)cc4n3)cc2F)cc1 [Example 101, 4-(3-(2-fluoro-4-(4-morpholino-7-(pyrimidin-5-yl)pyrido[3,2-d]pyrimidin-2-yl)phenyl)ureido)-N,N-dimethyl-benzamide] | < 50 nM | < 50 nM | 201 to 10000 nM | 201 to 10000 nM
16 | CN(C)C(=O)c1ccc(NC(=O)Nc2ccc(-c3nc(N4CCOCC4)c4ncc(-c5cccnc5)cc4n3)cc2F)cc1 [Example 102, 4-(3-(2-fluoro-4-(4-morpholino-7-(pyridin-3-yl)pyrido[3,2-d]pyrimidin-2-yl)phenyl)ureido)-N,N-dimethyl-benzamide] | < 50 nM | < 50 nM | 201 to 10000 nM | 201 to 10000 nM
17 | CN(C)C(=O)c1ccc(NC(=O)Nc2ccc(-c3nc(N4CCOCC4)c4ccc(-c5cccnc5)cc4n3)cc2F)cc1 [Example 103, 4-(3-(2-fluoro-4-(4-morpholino-7-(pyridin-3-yl)quinazolin-2-yl)phenyl)ureido)-N,N-dimethyl-benzamide] | < 50 nM | < 50 nM | 201 to 10000 nM | 201 to 10000 nM
18 | COc1ncc(-c2ccc3c(N4CCOCC4)nc(-c4ccc(NC(=O)Nc5ccc(C(=O)N(C)C)cc5)c(F)c4)nc3c2)cn1 [Example 105, 4-(3-(2-fluoro-4-(7-(2-methoxypyrimidin-5-yl)-4-morpholino-quinazolin-2-yl)phenyl)ureido)-N,N-dimethyl-benzamide] | 50 to 200 nM | < 50 nM | 201 to 10000 nM | 201 to 10000 nM
19 | CN(C)C(=O)c1ccc(NC(=O)Nc2ccc(-c3nc(N4CCOCC4)c4ncc(-c5cccnc5F)cc4n3)cc2F)cc1 [Example 106, 4-(3-(2-fluoro-4-(7-(2-fluoropyridin-3-yl)-4-morpholino-pyrido[3,2-d]pyrimidin-2-yl)phenyl)ureido)-N,N-dimethyl-benzamide] | < 50 nM | < 50 nM | 201 to 10000 nM | 201 to 10000 nM
20 | CN(C)C(=O)c1ccc(NC(=O)Nc2ccc(-c3nc(N4CCOCC4)c4cc(F)c(-c5cccnc5F)cc4n3)cc2)cc1 [Example 107, 4-(3-(4-(6-fluoro-7-(2-fluoropyridin-3-yl)-4-morpholino-quinazolin-2-yl)phenyl)ureido)-N,N-dimethyl-benzamide] | < 50 nM | < 50 nM | 201 to 10000 nM | 201 to 10000 nM
